Experimental data from patent US20260000689A1, “TARGETING CREB-HEPARAN SULFATE-FGF PATHWAY FOR CANCER TREATMENT” (UNIVERSITY OF SOUTH FLORIDA, priority 2022, published 2026).
“Also recorded” adds a separate entry of the source.

Assays:
[1] = test system: Myc-CaP cells; experiment: s.c. xenograft prostate cancer mouse model, Myc-CaP cells; assay type: in vivo, FVB/NJ mice; conditions: without EXT1-overexpression
Description: (§1) FIG. 7A-FIG. 7F show inhibition of CREB or HS attenuates prostate cancer growth. […] 7A) and HS (FIG. 7B) in Myc-CaP cells, and the in vitro cell growth (FIG. 7C) and migration (FIG. 7D).
(§2) FIG. 22E and FIG. 22F show myc-Cap cells in vivo for KG-501 (FIG. 22E) and Surfen (FIG. 22F). FIG. 22G and FIG. 22H show Ext1-overexpressing myc-Cap cells in vivo for KG-501 (FIG. 22G) and Surfen (FIG. 22H).

[2] = test system: Myc-CaP cells with EXT1-overexpression; experiment: s.c. xenograft prostate cancer mouse model, EXT1-overexpressing Myc-CaP cells; assay type: in vivo, FVB/NJ mice
Description: as §1, §2

[3] = test system: EXT1 mRNA; experiment: Expression of EXT1 mRNA in Myc-CaP cells; assay type: cell-based, mice
Description: as §1, §2

[4] = test system: HS; experiment: Expression of HS (heparan sulfate staining) in Myc-CaP cells; assay type: cell-based, mice
Description: as §1, §2

[5] = test system: Myc-CaP cells; experiment: In vitro cell growth of Myc-CaP cells; assay type: cell-based, mice
Description: as §1, §2

[6] = test system: Myc-CaP cells; experiment: Cell migration of Myc-CaP cells; assay type: cell-based, mice
Description: as §1, §2

[7] = test system: Myc-CaP cells; experiment: Colony formation of EXT1-overexpressing vs EV MyC-CaP cells with FGFR inhibitor; assay type: cell-based, mice; conditions: 1, 5, 10 μm AZD4547 vs DMSO

Row | Compound | growth of Myc-CaP cells in s.c. xenograft prostate cancer mouse model [1] | growth of Myc-CaP cells in s.c. xenograft prostate cancer mouse model ([1]; listed as surfen) | growth of EXT1-overexpressing Myc-CaP cells in s.c. xenograft prostate cancer mouse model [2] | expression of EXT1 mRNA [3] | expression of HS [4] | in vitro cell growth [5] | migration [6] | resistance of EXT1-overexpressing cells to FGFR inhibitor in colony formation [7]
1 | Cc1cc(N)c2cc(NC(=O)Nc3ccc4nc(C)cc(N)c4c3)ccc2n1 [Surfen, bis-2-methyl-4-amino-quinolyl-6-carbamide] | efficiently inhibited; also recorded: attenuated prostate cancer growth in vivo | blocked PCa growth | efficiently inhibited; also recorded: attenuated prostate cancer growth in vivo | – | – | – | – | –
2 | O=C(Nc1ccc(Cl)cc1)c1cc2ccccc2cc1OP(=O)(O)O [KG-501, 2-naphthol-AS-E-phosphate] | efficiently inhibited; also recorded: attenuated prostate cancer growth in vivo | – | efficiently inhibited; also recorded: attenuated prostate cancer growth in vivo | does-dependently inhibited | does-dependently inhibited | does-dependently inhibited | does-dependently inhibited | –
3 | COc1cc(CCc2cc(NC(=O)c3ccc(N4C[C@@H](C)N[C@@H](C)C4)cc3)n[nH]2)cc(OC)c1 [AZD4547] | – | – | blocks EXT1-overexpression-enhanced prostate cancer growth in vivo | – | – | – | – | more resistant
